According to patent US9133457B2, “Methods of incorporating amino acid analogs into proteins” (California Institute of Technology, priority 2004, dated 2015):
Like-named read-outs stand apart in the source and are kept apart here.

Legend:
[1] = target: T1, mu-yPheRS (modified yeast PheRS, Thr415Gly) (Saccharomyces cerevisiae, UniProt P15625, T415G); experiment: adenosine triphosphate-pyrophosphate exchange assay (amino acid activation); type: biochemical; conditions: larger than Phe
T1 construct: made in house
Description: The modified yeast PheRS (mu-yPheRS) was prepared by introduction of a Thr415Gly mutation in the α-subunit of the synthetase (Datta el al., J. Am. Chem. Soc. 124: 5652, 2002). The kinetics of activation of Nal and Phe by mu-yPheRS were analyzed in vitro via the adenosine triphosphate-pyrophosphate exchange assay.

[2] = tested on: E. coli strain (K10-F6); experiment: incorporation of Nal into mDHFR at Phe codons UUU/UUC (amino acid analysis, MALDI of tryptic digests); type: cell-based
Description: In this construct, four of the Phe residues of mDHFR are encoded by UUC codons, five by UUU. A full-length copy of the mu-yPheRS gene, under control of a constitutive tac promoter, was inserted into pQE16. […] E. coli transformants harboring these two plasmids were incubated in Phe-depleted minimal medium supplemented with 3 mM Nal and were then treated with 1 mM IPTG to induce expression of mDHFR. Although the E. coli strain (K10-F6) used in this study is a Phe auxotroph, (see Furter, supra) a detectable level of mDHFR was expressed even under conditions of nominal depletion of Phe, probably because of release of Phe through turnover of cellular proteins. In negative control experiments, mDHFR was expressed in the absence of either ytRNA^PheAAA or mu-yPheRS. […] For mDHFR isolated from the strain harboring the heterologous pair, amino acid analysis indicated replacement of 4.4 of the 9 Phe residues by Nal.
Tryptic digests of mDHFR were analyzed to determine the occupancy of individual Phe sites. Peptide 1UUU (residues 184-191, […], SEQ ID NO: 1) contains a Phe residue encoded as UUU, whereas peptides 2UUC (residues 62-70, […], SEQ ID NO: 2) and 3UUC (residues 26-39, […], SEQ ID NO: 3) each contain a Phe residue encoded as UUC. In the absence of Nal, peptide 1UUU was detected with a monoisotopic mass of 1105.55 Da, in accord with its theoretical mass (FIG. 2A). […] As described earlier, each substitution of Nal for Phe leads to a mass increase of 50.06 Da; the observed shift in mass is thus consistent with replacement of Phe by Nal in response to the UUU codon. Liquid chromatography-tandem mass spectrometry (LC/MS/MS) confirmed this assignment.
Similar analyses were conducted for peptides 2UUC and 3UUC. In the absence of added Nal, the observed masses of peptides 2UUC and 3UUC are 1135.61 (FIG. 2A) and 1682.89 Da (FIG. 2D), respectively, as expected. […] Nal incorporation thus appears to be rare at UUC codons under the conditions used here for protein expression.
There is at least a formal possibility that the observed codon-biased incorporation of Nal might be dependent on codon context rather than, or in addition to, codon identity. MALDI sampling errors are also possible. To test these possibilities, a mutant mDHFR gene was prepared by mutating the UUU codon in peptide 1UUU to UUC, and the UUC codon in peptide 3UUC to UUU. In the resulting peptide 1UUC, the signal indicating incorporation of Nal was only slightly above background (FIG. 2C), whereas for peptide 3UUU, Nal is readily detected (FIG. 2F). Nal incorporation is unambiguously codon-biased to UUU.

[3] = target: T2, E. coli leucyl-tRNA synthetase (LeuRS) (Escherichia coli, UniProt P07813); experiment: incorporation of Nal into mDHFR at Leu codon UUG, effect of LeuRS inhibitor; type: cell-based
T2 construct: endogenous in cells; host or cells: E. coli expression strain (Phe/Leu auxotroph) carrying ytRNAPheCAA and modified yeast PheRS
Description: In this example, multiple-site-specific incorporation of an unnatural amino acid into murine dihydrofolate reductase (mDHFR) in response to a sense codon was realized by use of an E. coli strain outfitted with a yeast transfer RNA (ytRNA^pheCAA) capable of Watson-Crick base-pairing with the leucine (Leu) codon UUG. ytRNA^pheCAA was charged with L-3-(2-naphthyl)alanine (Nal) by a co-expressed modified yeast phenylalanine tRNA synthetase. See schematic diagram in FIG. 3.
Incomplete occupancy of the UUG codon by Nal is due at least in part to competition with leucine-charged E. coli tRNA^Leus. In an attempt to reduce competition by E. coli tRNA^Leus, use of a mutant E. coli strain lacking tRNA^LeuCAA and addition of an E. coli leucyl-tRNA synthetase (LeuRS) inhibitor were tested. A Phe/Leu double auxotrophic strain derived from the tRNA^LeuCAA-deficient strain XA106 (CGSC at Yale) was tested for incorporation of Nal at the UUG codon.
Replacement of Leu by Nal was detected in MALDI mass spectra of tryptic fragments of mDHFR (FIG. 4). […] Furthermore, Nal incorporation was not detected when UUG was mutated to UUA in Peptide 3. No signal corresponding to Peptide 4CUG (Nal) was detected, whereas that corresponding to Peptide 4CUG was detected at 904.54 mass units. […]

[4] = tested on: Escherichia coli; conditions: cited from earlier work
[5] = target: T2, E. coli leucyl-tRNA synthetase (LeuRS); conditions: in vitro; cited from earlier work
[6] = modified using conventional amine-PEGylation; cited from earlier work
[7] = cited from earlier work
[8] = degree similar to Ceredase; cited from earlier work

T2 sequence (P07813 whole entry): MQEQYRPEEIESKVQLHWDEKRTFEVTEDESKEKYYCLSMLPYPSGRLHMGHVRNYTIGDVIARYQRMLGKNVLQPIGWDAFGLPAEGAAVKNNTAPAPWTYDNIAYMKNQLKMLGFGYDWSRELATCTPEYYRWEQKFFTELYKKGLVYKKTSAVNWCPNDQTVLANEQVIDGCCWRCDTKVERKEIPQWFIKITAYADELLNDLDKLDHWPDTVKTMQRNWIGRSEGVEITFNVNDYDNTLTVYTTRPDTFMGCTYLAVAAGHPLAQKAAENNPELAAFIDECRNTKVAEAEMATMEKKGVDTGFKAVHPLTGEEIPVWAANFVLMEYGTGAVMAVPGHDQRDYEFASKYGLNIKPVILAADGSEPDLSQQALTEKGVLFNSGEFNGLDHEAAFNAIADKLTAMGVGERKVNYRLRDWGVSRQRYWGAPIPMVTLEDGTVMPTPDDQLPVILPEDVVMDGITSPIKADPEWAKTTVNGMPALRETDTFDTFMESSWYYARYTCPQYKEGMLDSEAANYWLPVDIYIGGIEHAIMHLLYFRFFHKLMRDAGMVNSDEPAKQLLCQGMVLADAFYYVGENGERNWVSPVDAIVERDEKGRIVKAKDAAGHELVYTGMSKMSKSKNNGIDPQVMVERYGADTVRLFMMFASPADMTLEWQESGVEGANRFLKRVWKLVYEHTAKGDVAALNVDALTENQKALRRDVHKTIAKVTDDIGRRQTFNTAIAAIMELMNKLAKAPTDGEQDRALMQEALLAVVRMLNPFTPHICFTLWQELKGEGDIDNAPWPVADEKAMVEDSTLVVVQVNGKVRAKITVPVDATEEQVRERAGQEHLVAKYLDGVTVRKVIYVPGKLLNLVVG
T1 sequence (P15624 whole entry): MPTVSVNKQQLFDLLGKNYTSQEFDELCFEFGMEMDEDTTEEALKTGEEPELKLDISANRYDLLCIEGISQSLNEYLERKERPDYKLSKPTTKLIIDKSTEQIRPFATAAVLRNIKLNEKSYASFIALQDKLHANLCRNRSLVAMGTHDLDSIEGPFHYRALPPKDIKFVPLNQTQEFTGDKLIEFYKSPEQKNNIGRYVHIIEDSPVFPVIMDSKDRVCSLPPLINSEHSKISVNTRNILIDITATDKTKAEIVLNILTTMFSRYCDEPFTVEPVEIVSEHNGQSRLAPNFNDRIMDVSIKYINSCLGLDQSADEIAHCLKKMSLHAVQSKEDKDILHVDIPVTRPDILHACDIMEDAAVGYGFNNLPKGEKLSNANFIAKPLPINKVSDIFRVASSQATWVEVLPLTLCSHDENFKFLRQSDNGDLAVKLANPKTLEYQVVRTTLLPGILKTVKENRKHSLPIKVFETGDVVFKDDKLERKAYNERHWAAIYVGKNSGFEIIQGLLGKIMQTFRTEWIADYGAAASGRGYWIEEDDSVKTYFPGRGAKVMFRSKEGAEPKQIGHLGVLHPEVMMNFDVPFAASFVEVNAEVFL
T1 sequence (P15625 whole entry T415G): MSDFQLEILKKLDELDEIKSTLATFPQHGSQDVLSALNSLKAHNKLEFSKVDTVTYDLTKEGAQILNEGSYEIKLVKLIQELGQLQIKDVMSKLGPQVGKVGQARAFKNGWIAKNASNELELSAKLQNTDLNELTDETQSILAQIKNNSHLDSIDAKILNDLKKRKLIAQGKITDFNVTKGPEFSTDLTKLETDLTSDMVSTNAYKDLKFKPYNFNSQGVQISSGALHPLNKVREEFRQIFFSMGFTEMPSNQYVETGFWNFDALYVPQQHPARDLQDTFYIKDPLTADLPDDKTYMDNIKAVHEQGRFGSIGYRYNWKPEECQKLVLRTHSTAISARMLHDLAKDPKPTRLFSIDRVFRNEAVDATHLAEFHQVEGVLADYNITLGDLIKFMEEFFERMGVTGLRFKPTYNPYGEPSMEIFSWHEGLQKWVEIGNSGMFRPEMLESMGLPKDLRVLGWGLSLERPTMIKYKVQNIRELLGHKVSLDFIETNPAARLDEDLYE

## N[C@@H](Cc1ccc2ccccc2c1)C(=O)O [Nal, L-3-(2-naphthyl)alanine]
[1]
  specificity constant relative to that for Phe: 8 fold
[2]; MALDI signal intensities, peptide 1UUU
  Nal incorporation at the UUU codon: dominant
[2]; MALDI, peptides 2UUC and 3UUC
  Nal incorporation at UUC codons: rare
[2]; of the 9 Phe residues, strain harboring ytRNA^PheAAA and mu-yPheRS, 3 mM Nal, amino acid analysis
  Phe residues of mDHFR replaced by Nal: 4.4
[2]; without ytRNA^PheAAA or mu-yPheRS, amino acid analysis
  incorporation of Nal into mDHFR: no incorporation
[3]; ytRNA^PheCAA and modified yeast PheRS, mass spectrometry of tryptic digests
  re-assignment of the UUG codon to Nal: partially re-assigned

## CC1(C)S[C@@H]2[C@H](NC(=O)[C@H](N)c3ccccc3)C(=O)N2[C@H]1C(=O)O [ampicillin]
[4]; SctRNAGlnCUA coexpressed with ScGlnRS
  IC50 of cells: about 500 μg/mL
[4]; only SctRNAGlnCUA expressed
  IC50 of cells: 20 µg/mL

## CN(C)CC(N)C(=O)O (racemic) [AZL, 4-Aza-DL-leucine]
[3]; 1 mM AZL in the media
  effect on occupancy of the UUG codon by Nal: enhanced occupancy
[5]
  inhibition of E. coli LeuRS: competitive inhibitor

B1: GCSF: GCSF modified using conventional amine-PEGylation technologies (conjugate, UniProt P09919 31-207, looked up)
Granulocyte …: TPLGPASSLPQSFLLKCLEQVRKIQGDGAALQEKLVSECATYKLCHPEELVLLGHSLGIPWAPLSSCPSQALQLAGCLSQLHSGLFLYQGLLQALEGISPELGPTLDTLQLDVADFATTIWQQMEELGMAPALQPTQGAMPAFASAFQRRAGGVLVASHLQSFLEVSYRVLRHLAQP
modifications: amine PEGylation
notes: GCSF modified using conventional amine-PEGylation technologies
[6]
  reduction of bioactivity: 1,000 fold

B2: Cerezyme: recombinant analogue of the human enzyme β-Glucocerebrosidase, imiglucerase for injection (protein, UniProt P04062 40-536, looked up, variant R495H)
Lysosomal acid …: ARPCIPKSFGYSSVVCVCNATYCDSFDPPTFPALGTFSRYESTRSGRRMELSMGPIQANHTGTGLLLTLQPEQKFQKVKGFGGAMTDAAALNILALSPPAQNLLLKSYFSEEGIGYNIIRVPMASCDFSIRTYTYADTPDDFQLHNFSLPEEDTKLKIPLIHRALQLAQRPVSLLASPWTSPTWLKTNGAVNGKGSLKGQPGDIYHQTWARYFVKFLDAYAEHKLQFWAVTAENEPSAGLLSGYPFQCLGFTPEHQRDFIARDLGPTLANSTHHNVRLLMLDDQRLLLPHWAKVVLTDPEAAKYVHGIAVHWYLDFLAPAKATLGETHRLFPNTMLFASEACVGSKFWEQSVRLGSWDRGMQYSHSIITNLLYHVVGWTDWNLALNPEGGPNWVRNFVDSPIIVDITKDTFYKQPMFYHLGHFSKFIPEGSQRVGLVASQKNDLDAVALMHPDGSAVVVVLNRSSKDVPLTIKDPAVGFLETISPGYSIHTYLWHRQ
modifications: imiglucerase
notes: recombinant analogue of the human enzyme β-Glucocerebrosidase, imiglucerase for injection
[7]; during one-hour intravenous infusions
  time to steady-state enzymatic activity: ≤ 30 min
[7]; in vivo
  plasma clearance, mean±S.D.: 14.5 ± 4.0 mL/min/kg
  volume of distribution corrected for weight, mean±S.D.: 0.12 ± 0.02 L/kg
[8]
  clinical effect: improved anemia and thrombocytopenia, reduced spleen and liver size, and decreased cachexia
